T/C data for 15 molecules are collected here from PubChem BioAssay AID210 (DTP/NCI, 2004).

Where “and” joins values, the source holds several entries; their conditions need not be identical. Identical values can stand only once. Inconclusive results and toxic doses are left out.

The test system of the test is CD2F1 mice, ip Colon 26 adenocarcinoma, median survival T/C. Kind of test: NCI In Vivo Anticancer Drug Screen. Data for tumor model Colon 26 Adenocarcinoma (intraperitoneal) in CD2F1 (CDF1) mice. The conditions noted are these: endpoint: median survival time, higher = longer survival. How it is done:
The antitumor activity of compounds was measured in mice bearing transplantable tumors. Survival or tumor size were measured and the results are expressed as the measurement made in the treated group (T) divided by the measurement made in the vehicle treated control group (C). The tumor model used in this assay is Colon 26 Adenocarcinoma (intraperitoneal) in CD2F1 (CDF1) mice

Setting [1] is: dose: 0.5 mg/kg/injection, schedule: Q04DX003 (ip), vehicle: saline.
The mark [2] stands for this setting: dose: 1.0 mg/kg/injection, schedule: Q04DX003 (ip), vehicle: saline.
Where [3] appears, read: dose: 2.0 mg/kg/injection, schedule: Q04DX003 (ip), vehicle: saline.

On to `S=c1nc[nH]c2nc[nH]c12`, for which the T/C is, setting by setting: (dose: 6.25 mg/kg/injection, schedule: Q04DX003 (ip), vehicle: Klucel (hydroxypropylcellulose) (HPC)) 115 % of control; (dose: 12.5 mg/kg/injection, schedule: Q04DX003 (ip), vehicle: Klucel (hydroxypropylcellulose) (HPC)) 110 % of control; (dose: 50.0 mg/kg/injection, schedule: Q04DX003 (ip), vehicle: Klucel (hydroxypropylcellulose) (HPC)) 191 % of control and 252 % of control; (dose: 100.0 mg/kg/injection, schedule: Q04DX003 (ip), vehicle: Klucel (hydroxypropylcellulose) (HPC)) 171 % of control; (dose: 200.0 mg/kg/injection, schedule: Q04DX003 (ip), vehicle: Klucel (hydroxypropylcellulose) (HPC)) 86 % of control.

Take `CCOC(=O)c1ccc(NC(=O)Nc2nccs2)cc1`: the T/C reads like this: (dose: 12.5 mg/kg/injection, schedule: Q04DX002 (ip), vehicle: saline with Tween-80) 97 % of control; (dose: 25.0 mg/kg/injection, schedule: Q04DX002 (ip), vehicle: saline with Tween-80) 105 % of control; (dose: 50.0 mg/kg/injection, schedule: Q04DX002 (ip), vehicle: saline with Tween-80) 95 % of control; (dose: 100.0 mg/kg/injection, schedule: Q04DX002 (ip), vehicle: saline with Tween-80) 106 % of control; (dose: 200.0 mg/kg/injection, schedule: Q04DX002 (ip), vehicle: saline with Tween-80) 102 % of control; (dose: 400.0 mg/kg/injection, schedule: Q04DX002 (ip), vehicle: saline with Tween-80) 110 % of control.

`CCN(CC)CCNc1ccc(C)c2sc3ccccc3c(=O)c12`: the T/C is 102 % of control (dose: 25.0 mg/kg/injection, schedule: Q04DX002 (ip), vehicle: suspension in saline); 105 % of control (dose: 50.0 mg/kg/injection, schedule: Q04DX002 (ip), vehicle: suspension in saline); 103 % of control (dose: 100.0 mg/kg/injection, schedule: Q04DX002 (ip), vehicle: suspension in saline); 119 % of control (dose: 200.0 mg/kg/injection, schedule: Q04DX002 (ip), vehicle: suspension in saline).

Take `CC1CC(C)CC(C)C(O)/C(C#N)=C/C=C/CC(C2CCCC2C(=O)O)OC(=O)CC(O)C(C)C1` (centres undefined): the T/C under setting [1] is 103 % of control, the T/C under setting [2] is 105 % of control and the T/C under setting [3] was 100 % of control.

As to `CCC1(O)CC(OC2CC(N(C)C)C(OC3CC(O)C(OC4CCC(=O)C(C)O4)C(C)O3)C(C)O2)c2c(cc3c(c2O)C(=O)c2c(O)ccc(O)c2C3=O)C1C(=O)OC` (centres undefined), the T/C is, setting by setting: (dose: 0.38 mg/kg/injection, schedule: Q04DX003 (ip), vehicle: saline with Tween-80) 103 % of control; (dose: 0.75 mg/kg/injection, schedule: Q04DX003 (ip), vehicle: saline with Tween-80) 117 % of control; (dose: 1.5 mg/kg/injection, schedule: Q04DX003 (ip), vehicle: saline with Tween-80) 123 % of control; (dose: 3.0 mg/kg/injection, schedule: Q04DX003 (ip), vehicle: saline with Tween-80) 108 % of control.

On to `CC1(CO)C(=O)CCC2(C)C1CCC1CC3CC12CCC3(O)CO` (centres undefined), for which the T/C reads like this: (dose: 37.5 mg/kg/injection, schedule: Q04DX002 (ip), vehicle: distilled water + Tween-80) 97 % of control; (dose: 75.0 mg/kg/injection, schedule: Q04DX002 (ip), vehicle: distilled water + Tween-80) 101 % of control; (dose: 150.0 mg/kg/injection, schedule: Q04DX002 (ip), vehicle: distilled water + Tween-80) 94 % of control.

`CC1C(=O)CCC2(C)C1CCC1CC3CC12CCC3(O)CO` (centres undefined): the T/C reads like this: (dose: 25.0 mg/kg/injection, schedule: Q04DX002 (ip), vehicle: saline + alcohol) 100 % of control; (dose: 50.0 mg/kg/injection, schedule: Q04DX002 (ip), vehicle: saline + alcohol) 106 % of control; (dose: 100.0 mg/kg/injection, schedule: Q04DX002 (ip), vehicle: saline + alcohol) 92 % of control.

Turning to `COc1ccc2c(c1)CCC(c1ccccc1)=C2c1ccc(OCCN2CCCC2)cc1`, the T/C was 115 % of control (dose: 6.25 mg/kg/injection, schedule: Q01DX009 (ip), vehicle: saline); 111 % of control (dose: 12.5 mg/kg/injection, schedule: Q01DX009 (ip), vehicle: saline); 112 % of control (dose: 25.0 mg/kg/injection, schedule: Q01DX009 (ip), vehicle: saline).

For the molecule `C=CC(=O)N1CN(C(=O)C=C)CN(C(=O)C=C)C1`, the T/C reads like this: (dose: 3.13 mg/kg/injection, schedule: Q04DX003 (ip), vehicle: saline with Tween-80) 115 % of control; (dose: 6.25 mg/kg/injection, schedule: Q04DX003 (ip), vehicle: saline with Tween-80) 110 % of control; (dose: 12.5 mg/kg/injection, schedule: Q04DX003 (ip), vehicle: saline with Tween-80) 106 % of control; (dose: 12.5 mg/kg/injection, schedule: Q04DX003 (ip), vehicle: saline) 122 % of control.

As to `O=c1[nH]c(=O)n(C2CC(O)C(CO)O2)cc1F` (centres undefined), the T/C runs as follows: (dose: 80.0 mg/kg/injection, schedule: Q07DX003 (ip), vehicle: saline) 155 % of control; (dose: 120.0 mg/kg/injection, schedule: Q07DX003 (ip), vehicle: saline) 161 % of control and 171 % of control; (dose: 190.0 mg/kg/injection, schedule: Q07DX003 (ip), vehicle: saline) 150 % of control and 167 % of control; (dose: 280.0 mg/kg/injection, schedule: Q07DX003 (ip), vehicle: saline) 167 % of control and 169 % of control.

In the case of `O=C1NC(O)CCN1C1OC(CO)C(O)C1O` (centres undefined), the T/C (dose: 50.0 mg/kg/injection, schedule: Q04DX003 (ip), vehicle: saline) is 101 % of control; the T/C (dose: 100.0 mg/kg/injection, schedule: Q04DX003 (ip), vehicle: saline) was 101 % of control; the T/C (dose: 200.0 mg/kg/injection, schedule: Q04DX003 (ip), vehicle: saline) is 98 % of control; the T/C (dose: 400.0 mg/kg/injection, schedule: Q04DX003 (ip), vehicle: saline) was 100 % of control; the T/C (dose: 800.0 mg/kg/injection, schedule: Q04DX003 (ip), vehicle: saline) is 108 % of control.

Take `CNCCNc1ccc(NCCNC)c2c1C(=O)c1ccccc1C2=O`: the T/C is, setting by setting: (dose: 1.0 mg/kg/injection, schedule: Q01DX009 (ip), vehicle: acid diluted with saline) 154 % of control; (dose: 1.5 mg/kg/injection, schedule: Q01DX009 (ip), vehicle: acid diluted with saline) 205 % of control; (dose: 2.0 mg/kg/injection, schedule: Q01DX009 (ip), vehicle: acid diluted with saline) 219 % of control; (dose: 3.0 mg/kg/injection, schedule: Q01DX009 (ip), vehicle: acid diluted with saline) 236 % of control; (dose: 4.0 mg/kg/injection, schedule: Q01DX009 (ip), vehicle: acid diluted with saline) 215 % of control; (dose: 6.0 mg/kg/injection, schedule: Q01DX009 (ip), vehicle: acid diluted with saline) 226 % of control. In addition, the T/C (dose: 8.0 mg/kg/injection, schedule: Q01DX009 (ip), vehicle: acid diluted with saline) is 225 % of control; the T/C (dose: 12.0 mg/kg/injection, schedule: Q01DX009 (ip), vehicle: acid diluted with saline) was 236 % of control; the T/C (dose: 16.0 mg/kg/injection, schedule: Q01DX009 (ip), vehicle: acid diluted with saline) is 115 % of control.

`COc1ccc(CC2C(=O)NC(C)C(=O)N(C)C3C(=O)N(C)C(Cc4ccc(O)c(c4)Oc4ccc(cc4)C3O)C(=O)NC(C)C(=O)NC(C)C(=O)N2C)cc1` (centres undefined) (tested in a mixture with another compound): the T/C was 98 % of control under setting [1], 98 % of control under setting [2] and 99 % of control under setting [3].

In the case of `Cc1cnc(/C=N\NC(N)=S)c2cccc(N)c12`, the T/C was 110 % of control (dose: 25.0 mg/kg/injection, schedule: Q04DX003 (iv), vehicle: other); 103 % of control (dose: 42.0 mg/kg/injection, schedule: Q04DX003 (iv), vehicle: other); 108 % of control (dose: 68.0 mg/kg/injection, schedule: Q04DX003 (iv), vehicle: other).

As to `COCC1OC(OC2C3=C(C(C)C)CCC3(C)/C=C3\C(CCC3(O)COC)C(C)C2O)C(O)C2OC3OC12OC3(C)C1CO1` (centres undefined), the T/C reads like this: (dose: 0.78 mg/kg/injection, schedule: Q04DX002 (ip), vehicle: Klucel (hydroxypropylcellulose) (HPC)) 105 % of control and 94 % of control; (dose: 1.56 mg/kg/injection, schedule: Q04DX002 (ip), vehicle: Klucel (hydroxypropylcellulose) (HPC)) 104 % of control and 106 % of control; (dose: 3.12 mg/kg/injection, schedule: Q04DX002 (ip), vehicle: Klucel (hydroxypropylcellulose) (HPC)) 109 % of control and 95 % of control; (dose: 6.25 mg/kg/injection, schedule: Q04DX002 (ip), vehicle: Klucel (hydroxypropylcellulose) (HPC)) 116 % of control and 89 % of control and 100 % of control; (dose: 12.5 mg/kg/injection, schedule: Q04DX002 (ip), vehicle: Klucel (hydroxypropylcellulose) (HPC)) 103 % of control and 104 % of control and 98 % of control.
